Source: patent US20260001928A1 (CORTERIA PHARMACEUTICALS, priority 2022, published 2026)
*1 amine or outer side, *2 acyl side, *3 side chain or, on linkers, in order; H or OH if unused. Where a SMILES comes first, the peptide text is derived from it. Side-chain parts run from the residue outwards. [ ]: non-standard residue; d: D form. The star is where a group is joined. C20 diacid = O=C(O)CCCCCCCCCCCCCCCCCCC(=O)*; C18 diacid = O=C(O)CCCCCCCCCCCCCCCCC(=O)*; γGlu = O=C(O)[C@H](CCC(=O)[*:2])N[*:1]; Thp = NC1(C(=O)O)CCOCC1; Pentanoyl = CCCCC(=O)*; AEEA = NCCOCCOCC(=O)O; Aib = CC(C)(N)C(=O)O

How the values were obtained:
[1] = In vitro subcutaneous tissue supernatant (SCts) stability and metabolite identification, rat; assay type: in vitro ADME; set-up: remaining at 2 h: dose or concentration left out as unconfirmed; settings: male, Sprague Dawley; rat subcutaneous tissue supernatant (SCts), 37° C, 2 h
[2] = Pharmacokinetics in male Sprague Dawley rats after subcutaneous administration; assay type: in vivo; settings: plasma, rat, IV, 0.05 mg/kg
[3] = Chemical stability in buffer (pH 7.4 / pH 4.5), % purity loss; assay type: physicochemical; settings: 40° C. vs 5° C., 14 or 28 days; for Buffer stability pH 7.4 % purity loss: 100 mM phosphate buffer pH 7.4
Procedure, shortened: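 Compounds dissolved at 10 mg/mL target in 100 mM phosphate (pH 7.4) or 100 mM acetate (pH 4.5) buffer for 1 h at room temperature, then centrifuged. Diluted supernatant stored at 5 °C or 40 °C for 14 or 28 days; % purity loss by LC-UV.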

Sprague Dawley rats = assay: Effect on systolic blood pressure, telemetry in Sprague Dawley rats; assay type: in vivo, rat; settings: 0.1 mg/kg SC; for Systolic blood pressure (Mean) % change from baseline, 8 h / Systolic blood pressure (Mean) % change from baseline, 12 h / Systolic blood pressure (Mean) % change from baseline, 24 h: n=2; for Duration of action: last time point with an effect on BP still observed
Procedure, shortened: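 Sprague Dawley rats with abdominal-aorta telemetry catheters, recovered ≥10 days, received 0.1 mg/kg SC of compound or vehicle. Systolic pressure recorded 1 h pre-dose as baseline, then continuously up to 48 hours, expressed as % change from baseline; duration of action is last time point with a BP effect (n=2).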

human CRF2a receptor = biological target: T1, human CRF2a receptor (Homo sapiens, UniProt Q13324); assay: Activity at human CRF2a receptor, cAMP functional assay in TeloHEAC cells; assay type: cell-based; settings: TeloHEAC cells stably expressing human CRF2a receptor, relative to urocortin 2 (100 nM = 100%)
T1 construct: expressed in transfected cells; host or cells: TeloHEAC cells
T1 sequence (Q13324 1-411): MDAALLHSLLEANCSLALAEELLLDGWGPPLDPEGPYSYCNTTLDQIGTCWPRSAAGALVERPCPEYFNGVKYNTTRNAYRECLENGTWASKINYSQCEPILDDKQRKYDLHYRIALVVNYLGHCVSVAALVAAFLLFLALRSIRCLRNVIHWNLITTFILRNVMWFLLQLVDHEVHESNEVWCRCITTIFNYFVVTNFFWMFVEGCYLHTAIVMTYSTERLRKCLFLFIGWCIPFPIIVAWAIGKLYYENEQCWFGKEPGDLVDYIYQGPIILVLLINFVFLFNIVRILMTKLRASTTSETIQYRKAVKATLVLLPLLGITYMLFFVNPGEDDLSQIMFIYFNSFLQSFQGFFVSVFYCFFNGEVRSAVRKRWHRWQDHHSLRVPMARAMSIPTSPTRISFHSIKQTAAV
Procedure, shortened: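 cAMP accumulation was measured by HTRF 665/620 nm ratio after 30 min at 37° C compound exposure (16 twofold dilutions) of CRF2a-expressing TeloHEAC cells, 10000/well, in HEPES-buffered HBSS plus IBMX. Activity was normalised to urocortin 2 at 100 nM (100%), and EC50 was the concentration giving half-maximal activation.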

CFR1R receptor = biological target: T2, CFR1R receptor (Homo sapiens, UniProt P34998); assay: Activity at anti-target CFR1R receptor, cAMP assay in CRF1R-overexpression CHO-K1 cells; assay type: cell-based; settings: 100% = Sauvagine at 100 nM; for EC50: cAMP
T2 construct: host or cells: CHO-K1 (clone 2)
T2 sequence (P34998 24-415): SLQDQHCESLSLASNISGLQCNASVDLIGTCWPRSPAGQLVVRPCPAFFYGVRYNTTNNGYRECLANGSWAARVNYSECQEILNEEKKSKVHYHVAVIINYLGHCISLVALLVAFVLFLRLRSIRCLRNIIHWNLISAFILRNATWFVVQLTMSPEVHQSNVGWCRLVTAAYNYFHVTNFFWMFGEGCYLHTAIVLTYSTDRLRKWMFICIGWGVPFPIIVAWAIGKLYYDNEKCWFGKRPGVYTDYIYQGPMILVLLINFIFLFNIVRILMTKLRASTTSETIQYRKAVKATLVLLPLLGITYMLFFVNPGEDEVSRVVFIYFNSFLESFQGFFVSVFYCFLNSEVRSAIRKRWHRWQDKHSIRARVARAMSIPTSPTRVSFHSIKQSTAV
Procedure, shortened: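 cAMP readout in CRF1R-overexpressing CHO-K1 cells (clone 2), run as for the TeloHAEC assay at 4000 cells/well final. Cells came from cryopreserved banks. Sauvagine at 100 nM defined 100% activation.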

Compound | remaining at 2 h [1] | AUC(0-t) [2] | half-life [2] | Buffer stability pH 4.5 % purity loss ([3]; 100 mM acetate buffer pH 4.5) | Buffer stability pH 7.4 % purity loss [3] | Systolic blood pressure (Mean) % change from baseline, 8 h (Sprague Dawley rats) | Systolic blood pressure (Mean) % change from baseline, 12 h (Sprague Dawley rats) | Systolic blood pressure (Mean) % change from baseline, 24 h (Sprague Dawley rats) | Duration of action (Sprague Dawley rats) | EC50 (human CRF2a receptor) | Emax (% I) (CFR1R receptor) | EC50 (CFR1R receptor)
CC[C@H](C)[C@H](NC(C)=O)C(=O)N[C@H](C(=O)N[C@@H](CC(C)C)C(=O)N[C@@H](CO)C(=O)N[C@@H](CC(C)C)C(=O)N[C@@H](CC(=O)O)C(=O)N[C@@H](C(=O)N1CCC[C@H]1C(=O)N[C@H](C(=O)N[C@@H](CCCCN)C(=O)N[C@@H](CC(C)C)C(=O)N[C@@H](CCCCNC(=O)CC[C@H](NC(=O)CCCCCCCCCCCCCCCCCCC(=O)O)C(=O)O)C(=O)N[C@@H](CCCCN)C(=O)N[C@H](C(=O)N[C@@H](CC(C)C)C(=O)N[C@@H](CC(C)C)C(=O)N[C@@H](CCC(=O)O)C(=O)N[C@@H](CCC(N)=O)C(=O)N[C@@H](CCC(=O)O)C(=O)N[C@@H](CCCCN)C(=O)N[C@@H](CCC(N)=O)C(=O)N[C@@H](CCCCN)C(=O)N[C@@H](CCCCN)C(=O)N[C@@H](CCC(N)=O)C(=O)N[C@@H](CCCNC(=N)N)C(=O)N[C@@H](CCC(=O)O)C(=O)N[C@@H](CCC(N)=O)C(=O)N[C@@H](C)C(=O)N[C@@H](CCC(=O)O)C(=O)N[C@H](C(=O)N[C@@H](CC(N)=O)C(=O)NC1(C(=O)N[C@@H](CCC(N)=O)C(=O)N[C@H](C(=O)N[C@@H](CC(C)C)C(=O)N[C@@H](C)C(=O)N[C@@H](CCC(N)=O)C(=O)N[C@H](C(N)=O)C(C)C)[C@@H](C)CC)CCOCC1)[C@@H](C)O)[C@@H](C)CC)[C@@H](C)CC)C(C)C)C(C)C [compound 210] (Ac-IVLSLD[dV]PIKLK([γGlu-C20 diacid])KILLEQEKQKKQREQAETN[Thp]QILAQV-NH2) | 72% | 7780 ng·h/mL | 8.4 h | 0.0/0.0 ^ % | 0.0/0.0 ^ % | −13% | −13% | −6% | >24 h | – | – | –
CC[C@H](C)[C@H](NC(C)=O)C(=O)N[C@H](C(=O)N[C@@H](CC(C)C)C(=O)N[C@@H](CO)C(=O)N[C@@H](CC(C)C)C(=O)N[C@@H](CC(=O)O)C(=O)N[C@@H](C(=O)N1CCC[C@H]1C(=O)N[C@H](C(=O)N[C@@H](CCCCN)C(=O)N[C@@H](CC(C)C)C(=O)N[C@@H](CCCCNC(=O)CC[C@H](NC(=O)CC[C@H](NC(=O)CCCCCCCCCCCCCCCCCCC(=O)O)C(=O)O)C(=O)O)C(=O)N[C@@H](CCCCN)C(=O)N[C@H](C(=O)N[C@@H](CC(C)C)C(=O)N[C@@H](CC(C)C)C(=O)N[C@@H](CCC(=O)O)C(=O)N[C@@H](CCC(N)=O)C(=O)N[C@@H](CCC(=O)O)C(=O)N[C@@H](CCCCN)C(=O)N[C@@H](CCC(N)=O)C(=O)N[C@@H](CCCCN)C(=O)N[C@@H](CCC(=O)O)C(=O)N[C@@H](CCC(N)=O)C(=O)N[C@@H](CCCNC(=N)N)C(=O)N[C@@H](CCC(=O)O)C(=O)N[C@@H](CCC(N)=O)C(=O)N[C@@H](C)C(=O)N[C@@H](CCC(=O)O)C(=O)N[C@H](C(=O)N[C@@H](CC(N)=O)C(=O)NC(C)(C)C(=O)N[C@@H](CCC(N)=O)C(=O)N[C@H](C(=O)N[C@@H](CC(C)C)C(=O)N[C@@H](C)C(=O)N[C@@H](CCC(N)=O)C(=O)N[C@H](C(N)=O)C(C)C)[C@@H](C)CC)[C@@H](C)O)[C@@H](C)CC)[C@@H](C)CC)C(C)C)C(C)C [compound 241] (Ac-IVLSLD[dV]PIKLK([γGlu-γGlu-C20 diacid])KILLEQEKQKEQREQAETN[Aib]QILAQV-NH2) | 68% | 6210 ng·h/mL | 15 h | – | 2.0/Not Tested % | – | – | – | – | 560 pM | 7 % I | > 250000 pM
CCCCC(=O)N[C@H](C(=O)N[C@@H](CC(C)C)C(=O)N[C@@H](CO)C(=O)N[C@@H](CC(C)C)C(=O)N[C@@H](CC(=O)O)C(=O)N[C@@H](C(=O)N1CCC[C@H]1C(=O)N[C@H](C(=O)N[C@@H](CCCCN)C(=O)N[C@@H](CC(C)C)C(=O)N[C@@H](CCCCNC(=O)CC[C@H](NC(=O)CCCCCCCCCCCCCCCCC(=O)O)C(=O)O)C(=O)N[C@@H](CCCCN)C(=O)N[C@H](C(=O)N[C@@H](CC(C)C)C(=O)N[C@@H](CC(C)C)C(=O)N[C@@H](CCC(=O)O)C(=O)N[C@@H](CCC(N)=O)C(=O)N[C@@H](CCC(=O)O)C(=O)N[C@@H](CCCCN)C(=O)N[C@@H](CCC(N)=O)C(=O)N[C@@H](CCCCN)C(=O)N[C@@H](CCCCN)C(=O)N[C@@H](CCC(N)=O)C(=O)N[C@@H](CCCNC(=N)N)C(=O)N[C@@H](CCC(=O)O)C(=O)N[C@@H](CCC(N)=O)C(=O)N[C@@H](C)C(=O)N[C@@H](CCC(=O)O)C(=O)N[C@H](C(=O)N[C@@H](CC(N)=O)C(=O)NC(C)(C)C(=O)N[C@@H](CCC(N)=O)C(=O)N[C@H](C(=O)N[C@@H](CC(C)C)C(=O)N[C@@H](C)C(=O)N[C@@H](CCC(N)=O)C(=O)N[C@H](C(N)=O)C(C)C)[C@@H](C)CC)[C@@H](C)O)[C@@H](C)CC)[C@@H](C)CC)C(C)C)C(C)C [compound 193] (Pentanoyl-VLSLD[dV]PIKLK([γGlu-C18 diacid])KILLEQEKQKKQREQAETN[Aib]QILAQV-NH2) | 56% | 2340 ng·h/mL | 4.9 h | – | 0.0/Not Tested % | −20% | −12% | −8% | >24 h | 170 pM | 20 % I | > 250000 pM
CC[C@H](C)[C@H](NC(C)=O)C(=O)N[C@H](C(=O)N[C@@H](CC(C)C)C(=O)N[C@@H](CO)C(=O)N[C@@H](CC(C)C)C(=O)N[C@@H](CC(=O)O)C(=O)N[C@@H](C(=O)N1CCC[C@H]1C(=O)N[C@H](C(=O)N[C@@H](CCCCN)C(=O)N[C@@H](CC(C)C)C(=O)N[C@@H](CCCCNC(=O)COCCOCCNC(=O)COCCOCCNC(=O)CC[C@H](NC(=O)CCCCCCCCCCCCCCCCCCC(=O)O)C(=O)O)C(=O)N[C@@H](CCCCN)C(=O)N[C@H](C(=O)N[C@@H](CC(C)C)C(=O)N[C@@H](CC(C)C)C(=O)N[C@@H](CCC(=O)O)C(=O)N[C@@H](CCC(N)=O)C(=O)N[C@@H](CCC(=O)O)C(=O)N[C@@H](CCCCN)C(=O)N[C@@H](CCC(N)=O)C(=O)N[C@@H](CCCCN)C(=O)N[C@@H](CCC(=O)O)C(=O)N[C@@H](CCC(N)=O)C(=O)N[C@@H](CCCNC(=N)N)C(=O)N[C@@H](CCC(=O)O)C(=O)N[C@@H](CCC(N)=O)C(=O)N[C@@H](C)C(=O)N[C@@H](CCC(=O)O)C(=O)N[C@H](C(=O)N[C@@H](CC(N)=O)C(=O)NC(C)(C)C(=O)N[C@@H](CCC(N)=O)C(=O)N[C@H](C(=O)N[C@@H](CC(C)C)C(=O)N[C@@H](C)C(=O)N[C@@H](CCC(N)=O)C(=O)N[C@H](C(N)=O)C(C)C)[C@@H](C)CC)[C@@H](C)O)[C@@H](C)CC)[C@@H](C)CC)C(C)C)C(C)C [compound 236] (Ac-IVLSLD[dV]PIKLK([AEEA-AEEA-γGlu-C20 diacid])KILLEQEKQKEQREQAETN[Aib]QILAQV-NH2) | 75% | 8250 ng·h/mL | 15 h | – | 3.8/Not Tested % | – | – | – | – | 540 pM | 7 % I | > 250000 pM
